Source: the supplement of paper PMC10307832

Assays:
Assay in all cases: relative viability (nuclei count vs DMSO), 5 days (fraction); higher = more cells survive
NCI-H1651 = system: NCI-H1651
In short: (§1)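 The day after seeding in 1536-well plates, lung cancer cell lines were treated by pin tool with a single drug, or with a fixed anchor-drug dose together with five library-drug doses (not always all listed) in √10 steps. After 5 days, a combined fix-and-stain solution (final 0.05% Triton X-100, 1% formaldehyde, 1 ug/ml Hoechst) was added. Nuclei counted on 4× images gave relative viability as treated counts over vehicle counts, reported as the median of duplicate plates.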

ABC-1 = system: ABC-1
In short: as §1

BEN = system: BEN
In short: as §1

H3255 = system: H3255
In short: as §1

201T = system: 201T
In short: as §1

NCI-H1650 = system: NCI-H1650
In short: as §1

A-427 = system: A-427
In short: as §1

NCI-H650 = system: NCI-H650
In short: as §1

LC-2-ad = system: LC-2-ad
In short: as §1

NCI-H727 = system: NCI-H727
In short: as §1

NCI-H661 = system: NCI-H661
In short: as §1

HCC-15 = system: HCC-15
In short: as §1

LCLC-97TM1 = system: LCLC-97TM1
In short: as §1

NCI-H1915 = system: NCI-H1915
In short: as §1

NCI-H2087 = system: NCI-H2087
In short: as §1

CAL-12T = system: CAL-12T
In short: as §1

NCI-H441 = system: NCI-H441
In short: as §1

NCI-H596 = system: NCI-H596
In short: as §1

PC-3 [JPC-3] = system: PC-3 [JPC-3]
In short: as §1

NCI-H2023 = system: NCI-H2023
In short: as §1

NCI-H520 = system: NCI-H520
In short: as §1

NCI-H1944 = system: NCI-H1944
In short: as §1

NCI-H460 = system: NCI-H460
In short: as §1

SMILES: COc1cc(N2CCC(C(N)=O)CC2)ccc1Nc1nc(N)c(Cl)c(Nc2ccccc2S(=O)(=O)C(C)C)n1 [HG-5-88-01] + COc1cc2c(Oc3ccc(NC(=O)C4(C(=O)Nc5ccc(F)cc5)CC4)cc3F)ccnc2cc1OCCCN1CCOCC1 [Foretinib] (partner 0.25 µM)
- relative viability (NCI-H1651; first compound 0.04 µM): 0.793
- relative viability (NCI-H1651; first compound 0.1265 µM): 0.922
- relative viability (NCI-H1651; first compound 0.4 µM): 0.998
- relative viability (NCI-H1651; first compound 1.265 µM): 0.762
- relative viability (NCI-H1651; first compound 4 µM): 1.02
- relative viability (ABC-1; first compound 0.04 µM): 0.931
- relative viability (ABC-1; first compound 0.1265 µM): 1.16
- relative viability (ABC-1; first compound 0.4 µM): 0.73
- relative viability (ABC-1; first compound 1.265 µM): 0.719
- relative viability (ABC-1; first compound 4 µM): 0.616
- relative viability (BEN; first compound 0.04 µM): 0.399
- relative viability (BEN; first compound 0.1265 µM): 0.702
- relative viability (BEN; first compound 0.4 µM): 0.444
- relative viability (BEN; first compound 1.265 µM): 0.62
- relative viability (BEN; first compound 4 µM): 0.448
- relative viability (H3255; first compound 0.04 µM): 0.854
- relative viability (H3255; first compound 0.1265 µM): 0.874
- relative viability (H3255; first compound 0.4 µM): 0.856
- relative viability (H3255; first compound 4 µM): 0.649
- relative viability (201T; first compound 0.04 µM): 1.18
- relative viability (201T; first compound 0.1265 µM): 1.09
- relative viability (201T; first compound 0.4 µM): 1.12
- relative viability (201T; first compound 1.265 µM): 0.444
- relative viability (201T; first compound 4 µM): 1.02
- relative viability (NCI-H1650; first compound 0.04 µM): 1.11
- relative viability (NCI-H1650; first compound 0.1265 µM): 1.2
- relative viability (NCI-H1650; first compound 0.4 µM): 1.26
- relative viability (NCI-H1650; first compound 1.265 µM): 0.751
- relative viability (NCI-H1650; first compound 4 µM): 0.836
- relative viability (A-427; first compound 0.04 µM): 1.13
- relative viability (A-427; first compound 0.1265 µM): 1.13
- relative viability (A-427; first compound 0.4 µM): 0.953
- relative viability (A-427; first compound 1.265 µM): 1.08
- relative viability (A-427; first compound 4 µM): 1.08
- relative viability (NCI-H650; first compound 0.04 µM): 1.1
- relative viability (NCI-H650; first compound 0.1265 µM): 1.18
- relative viability (NCI-H650; first compound 0.4 µM): 0.949
- relative viability (NCI-H650; first compound 1.265 µM): 0.602
- relative viability (NCI-H650; first compound 4 µM): 0.719
- relative viability (LC-2-ad; first compound 0.04 µM): 0.987
- relative viability (LC-2-ad; first compound 0.1265 µM): 0.906
- relative viability (LC-2-ad; first compound 0.4 µM): 0.956
- relative viability (LC-2-ad; first compound 1.265 µM): 0.54
- relative viability (LC-2-ad; first compound 4 µM): 0.739
- relative viability (NCI-H727; first compound 0.04 µM): 1.07
- relative viability (NCI-H727; first compound 0.1265 µM): 0.843
- relative viability (NCI-H727; first compound 0.4 µM): 0.811
- relative viability (NCI-H727; first compound 1.265 µM): 0.55
- relative viability (NCI-H727; first compound 4 µM): 0.581
- relative viability (NCI-H661; first compound 0.04 µM): 1.01
- relative viability (NCI-H661; first compound 0.1265 µM): 1.05
- relative viability (NCI-H661; first compound 0.4 µM): 1.1
- relative viability (NCI-H661; first compound 1.265 µM): 1.03
- relative viability (NCI-H661; first compound 4 µM): 1.09
- relative viability (HCC-15; first compound 0.04 µM): 1.02
- relative viability (HCC-15; first compound 0.1265 µM): 1.01
- relative viability (HCC-15; first compound 0.4 µM): 0.946
- relative viability (HCC-15; first compound 1.265 µM): 0.867
- relative viability (HCC-15; first compound 4 µM): 0.703
- relative viability (LCLC-97TM1; first compound 0.04 µM): 0.893
- relative viability (LCLC-97TM1; first compound 0.1265 µM): 0.972
- relative viability (LCLC-97TM1; first compound 0.4 µM): 0.882
- relative viability (LCLC-97TM1; first compound 1.265 µM): 0.864
- relative viability (LCLC-97TM1; first compound 4 µM): 0.326
- relative viability (NCI-H1915; first compound 0.04 µM): 1.22
- relative viability (NCI-H1915; first compound 0.1265 µM): 1.22
- relative viability (NCI-H1915; first compound 0.4 µM): 1.04
- relative viability (NCI-H1915; first compound 1.265 µM): 1.2
- relative viability (NCI-H1915; first compound 4 µM): 1.04
- relative viability (NCI-H2087; first compound 0.04 µM): 1.13
- relative viability (NCI-H2087; first compound 0.1265 µM): 1.24
- relative viability (NCI-H2087; first compound 0.4 µM): 1.06
- relative viability (NCI-H2087; first compound 1.265 µM): 1.14
- relative viability (NCI-H2087; first compound 4 µM): 0.864
- relative viability (CAL-12T; first compound 0.04 µM): 1.06
- relative viability (CAL-12T; first compound 0.1265 µM): 1.19
- relative viability (CAL-12T; first compound 0.4 µM): 1.05
- relative viability (CAL-12T; first compound 1.265 µM): 0.963
- relative viability (CAL-12T; first compound 4 µM): 0.945
- relative viability (NCI-H441; first compound 0.04 µM): 0.889
- relative viability (NCI-H441; first compound 0.1265 µM): 1.06
- relative viability (NCI-H441; first compound 0.4 µM): 1
- relative viability (NCI-H441; first compound 1.265 µM): 0.771
- relative viability (NCI-H441; first compound 4 µM): 0.839
- relative viability (NCI-H596; first compound 0.04 µM): 0.956
- relative viability (NCI-H596; first compound 0.1265 µM): 0.871
- relative viability (NCI-H596; first compound 0.4 µM): 0.801
- relative viability (NCI-H596; first compound 1.265 µM): 0.895
- relative viability (NCI-H596; first compound 4 µM): 0.487
- relative viability (PC-3 [JPC-3]; first compound 0.04 µM): 1.07
- relative viability (PC-3 [JPC-3]; first compound 0.1265 µM): 1.04
- relative viability (PC-3 [JPC-3]; first compound 0.4 µM): 1.03
- relative viability (PC-3 [JPC-3]; first compound 1.265 µM): 0.99
- relative viability (PC-3 [JPC-3]; first compound 4 µM): 0.724
- relative viability (NCI-H2023; first compound 0.04 µM): 1
- relative viability (NCI-H2023; first compound 0.1265 µM): 0.899
- relative viability (NCI-H2023; first compound 0.4 µM): 0.628
- relative viability (NCI-H2023; first compound 1.265 µM): 0.399
- relative viability (NCI-H2023; first compound 4 µM): 0.507
- relative viability (NCI-H520; first compound 0.04 µM): 0.705
- relative viability (NCI-H520; first compound 0.1265 µM): 0.942
- relative viability (NCI-H520; first compound 0.4 µM): 0.629
- relative viability (NCI-H520; first compound 1.265 µM): 0.828
- relative viability (NCI-H520; first compound 4 µM): 0.76
- relative viability (NCI-H1944; first compound 0.04 µM): 0.874
- relative viability (NCI-H1944; first compound 0.1265 µM): 0.884
- relative viability (NCI-H1944; first compound 0.4 µM): 0.917
- relative viability (NCI-H1944; first compound 1.265 µM): 0.883
- relative viability (NCI-H1944; first compound 4 µM): 0.886
- relative viability (NCI-H460; first compound 0.04 µM): 1.03
- relative viability (NCI-H460; first compound 0.1265 µM): 1.01
- relative viability (NCI-H460; first compound 0.4 µM): 0.929
- relative viability (NCI-H460; first compound 1.265 µM): 0.959
- relative viability (NCI-H460; first compound 4 µM): 0.926
